Assay results: publication PMC9053583, “A novel series of phenolic temozolomide (TMZ) esters with 4 to 5-fold increased potency, compared to TMZ, against glioma cells irrespective of MGMT expression” (RSC Advances, 2020)
Read-outs that look alike come from different tables or passages of the source.

Legend:
U87-MG cells = assay: CellTiter-Glo cytotoxicity against U87-MG cells; type: cell-based; conditions: Homo sapiens, U-87 MG, 144 hours incubation, IC50 ± SD (n = 3)
Description: (§1) Apoptosis of glioma cells induced by TMZ, occurs at least 120 hours after treatment.[7] Consequently, cells were incubated for 144 hours with specified TMZ analogues in the in vitro investigations in order to obtain more reliable IC50 values.
(§2) 1321-N1 (human astrocytoma) was maintained in DMEM medium supplemented with 2 mM L-glutamine and 10% FBS. GOS-3, (human brain mixed astro-oligodendroglioma) was maintained in DMEM medium supplemented with 2 mM L-glutamine and 10% […]. U87-MG, (human glioblastoma) and SVGp12 (normal human astroglia) were maintained in EMEM medium supplemented with 2 mM L-glutamine, 1 mM sodium pyruvate and 10% FBS. All cell lines were incubated at 37 °C and 5% CO2 in a humidified incubator. Primary BTNW cultures were maintained in Ham's F10 nutrient mixture, containing 20 mM HEPES, 2 mM glutamine and 10% FBS. Primary cultures were incubated in a humidified incubator at 37 °C.
(§3) Cells were seeded in the appropriate media in each well of a Costar 96-well plate at a density of 5 × 10^2 immortalised cells; 2 × 10^3 (primary cells). The plates were incubated at 37 °C and 5% CO2 in a humidified incubator for 24 hours to allow cells to adhere. Each of the drugs tested were dissolved in DMSO to afford a 200 mM stock solution. The stock solutions were diluted with medium to afford the final working concentrations, ensuring DMSO concentration was no greater than 0.5% (v/v). Drug concentrations were added to the cells and incubated for 144 hours. After incubation, the drug concentrations were removed and replaced with 100 μL of CellTiter-Glo® and 100 μL of media. The luminescence of each well was measured on GENios Pro plate reader. The results for each of the drug concentrations were expressed as a percentage of the control wells. For cell lines, the regression equation for a polynomial line of best fit of order 2 was used to calculate the IC50. In the case of the in vitro model used in the present study, the IC50 was defined as the concentration of drug that results in a 50% reduction in oxyluciferin production. Primary culture cells were incubated with clinically relevant concentrations for 144 hours. Viability was expressed as a percentage of the control wells. Each experiment involving cell lines was carried out in triplicate of triplicates. Experiments using patient derived primary cultures were carried out in triplicate.
(§4) Initial screening of the 25 analogues was completed using the U87-MG cell line. The most promising analogues from the initial screening were taken forward and tested against the 1321-N1, GOS-3 and SVG-p12 cell lines. The results of all 4 cell lines were compiled and the analogues that were deemed to be the most promising drug candidates were tested against primary cultures at clinically relevant concentrations.

[1] = Solubility in cell culture medium; type: physicochemical
Description: The maximum concentration that could be achieved in medium for amide analogues 4a and 4c was approximately 200 μM, at which IC50 values could not be generated and were also eliminated from further studies.
as §3

1321-N1 = assay: CellTiter-Glo cytotoxicity against 1321-N1 cells; type: cell-based; conditions: Homo sapiens, 144 hours incubation, IC50 ± SD (n = 3)
Description: as §1, §2, §3, §4

GOS-3 = assay: CellTiter-Glo cytotoxicity against GOS-3 cells; type: cell-based; conditions: Homo sapiens; 144 hours incubation, IC50 ± SD (n = 3)
Description: as §1, §2, §3, §4

SVGp12 = assay: CellTiter-Glo cytotoxicity against normal SVGp12 cell line; type: cell-based; conditions: Homo sapiens, 144 hours incubation, IC50 ± SD (n = 3)
Description: as §1, §2, §3, §4

BTNW914 (MGMT−) = assay: Cell viability of patient derived primary GBM culture BTNW914 (MGMT−); type: cell-based, human; conditions: 6 days incubation; for reduction in viability against MGMT devoid GBM cells: at 75 μM; for IC50: Homo sapiens, 144 h, read-out: IC50 against MGMT devoid GBM primary cells
Description: (§5) Fig. 2 (A) Cell viability of BTNW914 (MGMT−) after treatment by TMZ and phenyl TMZ ester analogues at various clinically relevant concentrations and incubation for 6 days. (B) Cell Viability of BTNW374 (MGMT+) after treatment by TMZ and phenyl TMZ ester analogues at various clinically relevant concentrations. Values are reported as the percentage of viable cells ± SD, n = 3.
(§6) Cytotoxic evaluation of the analogues was completed against 4 cell lines and 2 primary GBM cultures. The human glioma cell lines, GOS-3, U87-MG and 1321-N1 along with the human astroglial cell line, SVGp12, were purchased from The European Collection of Cell Cultures (ECCAC, UK) and Deutsche Sammlung von Mikroorganismen und Zellkulturen (DMSZ, Germany). Patient derived primary GBM cultures, BTNW374 and BTNW914, were obtained from The Brain Tumour North West Tissue Bank in collaboration with The Royal Preston Hospital. Patient data for primary cells was included as part of the ESI. ^†
as §2, §3

BTNW374 (MGMT+) = assay: Cell viability of patient derived primary GBM culture BTNW374 (MGMT+); type: cell-based, human
Description: as §5, §6, §2, §3

[2] = system: porcine liver esterase (PLE); assay: Stability of phenolic TMZ esters on exposure to porcine liver esterase; type: in vitro ADME; conditions: pH 6, 37 °C
Description: The hydrolysis was monitored by the decrease in the peak area of the corresponding TMZ esters, however, due to sensitivity of the imidazotetrazine ring to pH, the experiments were carried out at pH 6 to avoid the formation of imidazoles. The validation of the analytical method also involved investigating the stability of the imidazotetrazine ring whilst ensuring PLE retained a significant level of activity.
A disodium phosphate, citric acid buffer (pH 6) was prepared by using disodium phosphate (Na2HPO4·12H2O, 200 mM) and citric acid (100 mM). A stock solution of 80 mg/100 mL of each of the TMZ esters (3h, 3i, 3j, 3k, 3l and 3n) were prepared in DMSO. The control reaction, without enzyme, was prepared by adding 3000 μL of buffer to the reaction vessel along with 56.25 μL of the stock solution. The test reaction, with enzyme, was prepared by adding 2999 μL of buffer to the reaction vessel along with 56.25 μL of TMZ ester. The final concentration of TMZ esters in the reaction vessels was 1.47 mg/100 mL. Porcine liver esterase (1 μL) was added to the test reaction at zero time (minutes). Both the control and test reactions were then incubated at 37 °C. Aliquots of 200 μL were transferred from the reaction vessels to 2 mL Eppendorf tubes, at 3 minute intervals for 30 minutes. The reaction was quenched by adding 200 μL of acetonitrile. […]

[3] = cited from earlier work
[4] = initial screening, CellTiter-Glo, read-out: IC50 against U87-MG cells
[5] = lead analogues (Table 2), read-out: IC50 U87-MG

Row | Compound | maximum concentration that could be achieved in medium [1] | solubility in cell culture medium [1] | melting point [°C] | Time taken to hydrolyse 50% of the ester [2] [min] | IC50 (U87-MG cells; [4]) [µM] | IC50 (U87-MG cells; [5]) [µM] | IC50 (1321-N1) [µM] | IC50 (GOS-3) [µM] | IC50 (SVGp12) [µM] | reduction in viability against MGMT devoid GBM cells (BTNW914 (MGMT−)) | IC50 (BTNW914 (MGMT−)) [µM] | cytotoxicity against MGMT positive patient derived primary culture (BTNW374 (MGMT+); human, 144 h, 75 μM) | reduction of viability of MGMT devoid cells (BTNW914 (MGMT−); at 15 and 75 μM) | cytotoxicity against MGMT positive patient derived primary culture (BTNW374 (MGMT+); BTNW374, clinically relevant concentrations up to 75 μM) | brain-tumour concentration [3] [µM] | brain-tumour concentration as share of plasma concentration [3] | time frame of maximum intracranial concentration [3]
1 | CCCCCCOC(=O)c1ncn2c(=O)n(C)nnc12 [Analogue 3b, Hexyl 3-methyl-4-oxo-3,4-dihydroimidazo[5,1-d][1,2,3,5]tetrazine-8-carboxylate] |  |  | 76 |  | 409 ± 45 | 409 ± 45 | 269 ± 20 | 269 ± 6 | 182 ± 11 |  |  |  |  |  |  |  | 
2 | Cn1nnc2c(C(=O)Oc3ccccc3)ncn2c1=O [Analogue 3l, Phenyl 3-methyl-4-oxo-3,4-dihydroimidazo[5,1-d][1,2,3,5]tetrazine-8-carboxylate] |  |  | 149 |  | 331 ± 47 | 330 ± 47 | 511 ± 10 | 691 ± 35 | 238 ± 6 | greater than 50% |  |  |  |  |  |  | 
3 | COc1ccc(OC(=O)c2ncn3c(=O)n(C)nnc23)cc1 [Analogue 3h, 4-Methoxyphenyl 3-methyl-4-oxo-3,4-dihydroimidazo [5,1-d][1,2,3,5] tetrazine-8-carboxylate] |  |  | 172 | 7.3 | 134 ± 7 | 134 ± 7 | 183 ± 1 | 183 ± 5 | 44 ± 2 |  | < 15 | generated cytotoxicity at 75 μM |  |  |  |  | 
4 | Cn1nnc2c(C(N)=O)ncn2c1=O [TMZ, 3-methyl-4-oxo-imidazo[5,1-d][1,2,3,5]tetrazine-8-carboxamide, reference compound] |  |  |  |  | 696 ± 79 | 621 ± 66 | 783 ± 40 | 696 ± 16 | 239 ± 6 |  |  |  | approximately 20% | TMZ resistance | 15 | approximately 20% | approximately 2 ± 0.8 hours
5 | Cn1nnc2c(C(=O)Oc3ccc(Cl)cc3)ncn2c1=O [Analogue 3j, 4-Chlorophenyl 3-methyl-4-oxo-3,4-dihydroimidazo [5,1-d][1,2,3,5] tetrazine-8-carboxylate] |  |  | 164 |  | 96 ± 3 | 96 ± 3 | 118 ± 11 | 54 ± 4 | 33 ± 1 |  | < 15 | generated cytotoxicity at 75 μM |  |  |  |  | 
6 | Cn1nnc2c(C(=O)O)ncn2c1=O [TMZ acid, 3-methyl-4-oxo-3,4-dihydroimidazo[5,1-d][1,2,3,5]tetrazine-8-carboxylic acid] |  |  |  |  | 662 ± 42 | 662 ± 42 | 596 ± 26 | 504 ± 30 | 316 ± 2 |  |  |  |  |  |  |  | 
7 | Cc1ccc(OC(=O)c2ncn3c(=O)n(C)nnc23)cc1 [Analogue 3n, p-Tolyl 3-methyl-4-oxo-3,4-dihydroimidazo[5,1-d][1,2,3,5]tetrazine-8-carboxylate] |  |  | 164 |  | 376 ± 62 | 376 ± 62 | 238 ± 8 | 314 ± 38 | 215 ± 26 | greater than 50% |  | generated cytotoxicity at 75 μM |  |  |  |  | 
8 | Cn1nnc2c(C(=O)Oc3ccc([N+](=O)[O-])cc3)ncn2c1=O [Analogue 3i, 4-Nitrophenyl 3-methyl-4-oxo-3,4-dihydroimidazo [5,1-d][1,2,3,5] tetrazine-8-carboxylate] |  |  | 190 |  | 142 ± 3 | 141 ± 3 | 104 ± 4 | 91 ± 1 | 39 ± 2 |  | < 15 | generated cytotoxicity at 75 μM |  |  |  |  | 
9 | COc1ccc(COC(=O)c2ncn3c(=O)n(C)nnc23)cc1 [Analogue 3f, 4-Methoxybenzyl 3-methyl-4-oxo-3,4-dihydroimidazo[5,1-d][1,2,3,5]tetrazine-8-carboxylate] |  | insoluble | 170 |  |  |  |  |  |  |  |  |  |  |  |  |  | 

Continued, in another order:

Row | maximum concentration that could be achieved in medium [1] | solubility in cell culture medium [1] | melting point [°C] | Time taken to hydrolyse 50% of the ester [2] [min] | Compound | IC50 (U87-MG cells; [4]) [µM] | IC50 (U87-MG cells; [5]) [µM] | IC50 (1321-N1) [µM] | IC50 (GOS-3) [µM] | IC50 (SVGp12) [µM] | reduction in viability against MGMT devoid GBM cells (BTNW914 (MGMT−)) | IC50 (BTNW914 (MGMT−)) [µM] | cytotoxicity against MGMT positive patient derived primary culture (BTNW374 (MGMT+); human, 144 h, 75 μM) | reduction of viability of MGMT devoid cells (BTNW914 (MGMT−); at 15 and 75 μM) | cytotoxicity against MGMT positive patient derived primary culture (BTNW374 (MGMT+); BTNW374, clinically relevant concentrations up to 75 μM) | brain-tumour concentration [3] [µM] | brain-tumour concentration as share of plasma concentration [3] | time frame of maximum intracranial concentration [3]
10 | approximately 200 μM | insoluble | 189 |  | Cn1nnc2c(C(=O)Nc3ccccc3)ncn2c1=O [Analogue 4c, 3-Methyl-4-oxo-N-phenyl-3,4-dihydroimidazo[5,1-d][1,2,3,5]tetrazine-8-carboxamide] | > 200 |  |  |  |  |  |  |  |  |  |  |  | 
11 |  | insoluble | 148 |  | Cn1nnc2c(C(=O)NCc3ccc(Cl)cc3)ncn2c1=O [Analogue 4k, N-(4-Chlorobenzyl)-3-methyl-4-oxo-3,4-dihydroimidazo[5,1-d][1,2,3,5]tetrazine-8-carboxamide] |  | 138 ± 28 | > 200 | > 200 | 79 ± 6 |  |  |  |  |  |  |  | 
12 | approximately 200 μM | insoluble | 138 |  | CCCCCCNC(=O)c1ncn2c(=O)n(C)nnc12 [Analogue 4a, N-Hexyl-3-methyl-4-oxo-3,4-dihydroimidazo[5,1-d][1,2,3,5]tetrazine-8-carboxamide] | > 200 |  |  |  |  |  |  |  |  |  |  |  | 
